Measurements published in US20190308956A1, “PIPERAZINE DERIVATIVES AS ANTIVIRAL AGENTS WITH INCREASED THERAPEUTIC ACTIVITY” (SERVICIO ANDALUZ DE SALUD, priority 2016, published 2019).

How the values were obtained:
[1] = test system: Acinetobacter baumannii strains resistant to colistine; assay: Screening of inhibition of bacterial growth at 50 μM; type: cell-based; conditions: 5×10^5 CFU/ml, 18 h; for Screening, growth inhibition Ab 14: strain Ab 14, 50 μM; for Screening, growth inhibition Ab 17: strain Ab 17, 50 μM; for Screening, growth inhibition Ab 21R: strain Ab 21R; for Screening, growth inhibition Ab 24: strain Ab 24, 50 μM; for Screening, growth inhibition Ab 11: strain Ab 11, 50 μM
Text: (§1) All of the strains used were Acinetobacter baumannii strains resistant to colistine: Resistance (R)≥4 Sensibility (S)≤2—All of these strains have been disclosed in Valencia R, Arroyo L A, Conde M, Aldana J M, Torres M J, Fernandez-Cuenca F, et al. Nosocomial outbreak of infection with pan-drug-resistant Acinetobacter baumannii in a tertiary care university hospital. Infection control and hospital epidemiology. 2009; 30(3):257-63. The specific strains used were the following: 1, 10, 11, 14, 16, 17, 19, 20, 21R, 22P, 24, 99 and 113.
Evaluation of the inhibition of the bacterial growth of the 4 families of piperazines derivatives was performed by using a final concentration of 50 μM of each piperazine derivative in a concentration of 5×10^5 CFU/ml of each strain of A. baumannii in 96-well plates.
These plates were incubated for 18 hours at 37° C.

HAdV5-GFP [2] = assay: Plaque assay, HAdV5-GFP in 293β5 cells; type: cell-based
Method: 1.5. Plaque assay. For low MOI infections, active compounds were further evaluated in a plaque assay. 293β5 cells were seeded in 6-well plates at 4×10^5 cells per well in duplicate for each condition. When cells reached 80-90% confluency, they were infected with HAdV5-GFP or HAdV16-GFP (0.06 vp/cell) and rocked for 2 h at 37° C. The inoculum was removed and the cells were washed once with PBS. The cells were then carefully overlaid with 4 ml/well of equal parts of 1.6% […] Difco Agar Noble (Becton, Dickinson & Co, Sparks, MD) and 2× EMEM (BioWhittaker) supplemented with 2x penicillin/streptomycin, 2× L-glutamine and 10% FBS. The mixture also contained compound in concentrations ranging from 5 to 1 μM. Following incubation for 7 days at 37° C., plates were scanned with a Typhoon 9410 imager (GE Healthcare Life Sciences), and plaques were quantified with ImageJ.43
For the plaque assay 293β5 cells were infected with HAdV5-GFP (in the presence of compound at 10 μM) (Table 2). From this generation of compounds, our primary screening identified 4 compounds (12, 13, 22 and 25) that inhibited HAdV5-GFP plaque formation >90% compared to a control with the same volume of DMSO.

[3] = test system: Acinetobacter baumannii strains resistant to colistine; assay: Minimal inhibitory concentration (MIC), microdilution in MHBII; type: cell-based; conditions: 5×10^5 CFU/ml, 18 h; for CMI (MIC) Ab 14: strain Ab 14, MHBII; for CMI (MIC) Ab 17: strain Ab 17, MHBII; for CMI (MIC) Ab 21R: strain Ab 21R; for CMI (MIC) Ab 24: strain Ab 24, MHBII; for CMI (MIC) Ab 11: strain Ab 11, MHBII
Text: as §1
Microdilution in cell medium Mueller Hinton Broth II (MHBII). This technique was carried out solely in those piperazines which presented inhibitory activity in the screening study.
We used decreasing concentrations of each piperazine derivative (from 50 μM -0.05 μM) in a concentration of 5×10^5 CFU/ml of each strain of A. baumannii in 96 well plates. These plates were incubated for 18 hours at a temperature 37° C.

HAdV5-GFP [4] = assay: Entry assay, HAdV5-GFP in A549 cells (GFP expression); type: cell-based
Method: 1.3. Entry assay. An initial rapid screening was performed using human A549 epithelial cells (3×10^5 cells/well in Corning black wall, clear bottom 96-well plates) infected with HAdV5-GFP (2,000 vp/cell) in the presence of 50 μM of the candidate antiviral compounds. Virus was preincubated with the compounds (individual and mixed) for 45 minutes at 4° C., and then added to cells. A standard infection curve was generated in parallel by infecting cells in the absence of compounds using serial two-fold dilutions of virus. All reactions were done in triplicate. Cells, virus and compounds were incubated for 48 h at 37° C. and 5% CO2. Infection, as measured by HAdV-mediated GFP expression, was analyzed using a Typhoon 9410 imager (GE Healthcare Life Sciences), and quantified with ImageQuantTL (GE Healthcare Life Sciences).

[5] = Cytotoxicity assay (alamarBlue cell viability); type: cell-based, Human; conditions: human, A549 cells, 48 h
Method: 1.4. Cytotoxicity assay. The cytotoxicity of the compounds was measured using the AlarmBlue cell viability assay (Invitrogen) according to the manufacturer's instructions. Actively dividing A549 cells were incubated with compounds for 48 h. After the incubation the alamarBlue reagent was added to the cells ( 1/10th alamarBlue reagent in culture medium) for an extra 4 h. The 50% cell cytotoxic concentration (CC50) of the molecules was calculated according to Cheng et al.42 The selectivity index (SI) was evaluated as the ratio of CC50 to IC50, where the IC50 is defined as the concentration of compound that inhibits HAdV infection by 50%.

Row | SMILES | Screening, growth inhibition Ab 14 [1] [µM] | Inhibition assay in plaque (HAdV5-GFP [2]) | CMI (MIC) Ab 14 [3] [µM] | Starting Inhibition assay (HAdV5-GFP [4]) | Screening, growth inhibition Ab 17 [1] [µM] | Screening, growth inhibition Ab 21R ([1]; 50 μM) [µM] | CMI (MIC) Ab 17 [3] [µM] | CMI (MIC) Ab 21R ([3]; MHBII) [µM] | Screening, growth inhibition Ab 24 [1] [µM] | CMI (MIC) Ab 24 [3] [µM] | Screening, growth inhibition Ab 11 [1] [µM] | CMI (MIC) Ab 11 [3] [µM] | Screening, growth inhibition Ab 22P ([1]; strain Ab 22P, 50 μM) [µM] | CMI (MIC) Ab 22P ([3]; strain Ab 22P, MHBII) [µM] | CC50 at 48 h [5] [µM] | inhibition at 10 µM (HAdV5-GFP [2]; read-out: Percentage of plaque formation inhibition, HAdV5-GFP, 10 μM, 293β5 cell line) [%] | melting point [°C]
1 | CC1CN(C(=O)OC(C)(C)C)CCN1C(=S)Nc1cc(C(F)(F)F)cc(C(F)(F)F)c1 (stereo not shown) [Vip 592] | <50 | 11.11 ± 19.25 | 3.12 | 71.76 ± 15.00 |  |  |  |  |  |  |  |  |  |  |  |  | 
2 | Cc1ccc(NC(=S)N2CCN(C(=O)OC(C)(C)C)CC2C)cc1 (stereo not shown) [Vip 591] | <50 | 49.11 ± 4.73 | >50 | 56.61 ± 17.69 | <50 | <50 | 50 | 50 |  |  |  |  |  |  |  |  | 
3 | CC1CN(C(=O)Cc2ccccc2)CCN1C(=S)Nc1ccc(F)cc1 (stereo not shown) [Vip 638] |  | 28.90 ± 23.21 |  | 72.06 ± 14.91 |  |  |  |  | <50 | 50 |  |  |  |  |  |  | 
4 | CC1CN(C(=O)Cc2ccccc2)CCN1C(=S)Nc1ccc(C(F)(F)F)cc1 (stereo not shown) [Vip 633] |  | 45.36 ± 16.56 |  | 43.12 ± 17.16 | <50 |  | 25 |  | <50 | 50 | <50 | 25 |  |  |  |  | 
5 | Cc1ccc(NC(=S)N2CCN(C(=O)Cc3ccccc3)CC2C)cc1 (stereo not shown) [Vip 636] |  | 13.79 ± 25.70 |  | 73.72 ± 14.39 | <50 | <50 | 25 | 25 | <50 | 50 | <50 | 50 |  |  |  |  | 
6 | COc1ccc(NC(=S)N2CCN(C(=O)OC(C)(C)C)CC2C)cc1 (stereo not shown) [Vip 590] | <50 | 36.55 ± 30.13 | >50 | 62.79 ± 17.03 |  |  |  |  |  |  |  |  |  |  |  |  | 
7 | CC1CN(C(=O)OC(C)(C)C)CCN1C(=S)Nc1ccc(C(F)(F)F)cc1 (stereo not shown) [Vip 604] |  | 73.43 ± 22.49 |  | 43.24 ± 17.18 |  | <50 |  | 25 | <50 | 25 |  |  | <50 | 25 |  |  | 
8 | CC1CN(C(=O)OC(C)(C)C)CCN1C(=O)Nc1cc(C(F)(F)F)ccc1Cl (stereo not shown) [Compound 30, 4-tert-Butoxycarbonyl-1-[(2-chloro-5-trifluoromethylphenyl)aminocarbonyl]-2-methylpiperazine] |  |  |  |  |  |  |  |  |  |  |  |  |  |  | 63.5 ± 8.22 | 91 to 100 | 98 to 100
9 | COc1ccc(NC(=S)N2CCN(C(=O)Cc3ccccc3)CC2C)cc1 (stereo not shown) [Vip 637] |  | 29.36 ± 36.56 |  | 61.99 ± 17.15 | <50 |  | 50 |  | <50 | >50 |  |  |  |  |  |  | 
